“Also recorded” adds a separate entry of the source. Read-outs that look alike come from different tables or passages of the source. Residues, ends and D or L forms follow the SMILES beside them. *: point of attachment. Propanoyl(3-C8F17) = O=C(CCC(F)(F)C(F)(F)C(F)(F)C(F)(F)C(F)(F)C(F)(F)C(F)(F)C(F)(F)F)*
Tests used:
[1] = assay type: physicochemical; conditions: for Further dilution in Mannitol:Water Solubility: FCP 0.167 mM, 1.33% (w/v) mannitol, cloudiness / particulates; for Dispersion in Water Solubility: FCP 1.333 mM in water, vortexed and sonicated, cloudiness (Clear/Cloudy−/Cloudy/Cloudy+) / particulates
Procedure: The solubility of each FCP in water was assessed. Each FCP was dispersed in 300 μl of water to a final concentration of 1.333 mM and vortexed and sonicated. The typical dispersion conditions were four sequences of three minutes bath sonication interspersed by 30 seconds vortexing. After inspection, the resulting solution was diluted with a mannitol solution (a candidate lyophilisation medium, final concentration of peptide 0.167 mM, 1.33% (w/v) mannitol). Solubility was assessed by visual observation of the cloudiness of the resulting dispersion (scaled: Clear/Cloudy−/Cloudy/Cloudy+) and presence of particulates. […]

[2] = assay type: physicochemical; conditions: 1.33% mannitol, 0.22 μm PVDF filter
[3] = assay type: physicochemical; conditions: for Percentage acetic acid (% v/v): minimum concentration for acceptable dispersibility and solubility: FCP 2 μmol/ml after acetic acid dispersion; for Visual appearance after dispersion: at the listed acetic acid concentration, FCP 2 μmol/ml; for Physical stability of formulation at less than 80% (v/v) acetic acid: gel or soluble particulates formed over time
Procedure: In order to limit the concentration of acetic acid downstream in the formulation process and in the final product, the lowest concentration of acetic acid in water to achieve efficient dispersion and maintain visible solubility was determined for each fluorocarbon-linked peptide. When using mannitol as a cryprotectant, it is important to minimize the acetic acid concentration at the lyophilisation stage in order to achieve a stable and amorphous freeze-dried product. The minimum acetic acid concentration to achieve acceptable dispersibility and solubility of the individual fluorocarbon-linked peptides was determined. The final concentration of fluorocarbon-linked peptide after initial acetic acid dispersion was 2 μmol/ml and after dilution with mannitol, 0.250 μmol/ml.

[4] = for Ease of solubility, Cycle 1 Vortexing: 10 mg net/ml in 10% (FCP1, 2, 4, 5) or 80% (FCP9, 8) acetic acid; for Visual appearance after dispersion: 10 mg net/ml in AcOH 10% or 80%
[5] = 10 mg net/ml in 10% or 80% acetic acid

Structure (SMILES): CC[C@H](C)[C@H](NC(=O)[C@H](Cc1ccc(O)cc1)NC(=O)[C@@H](NC(=O)[C@H](CO)NC(=O)[C@H](CO)NC(=O)[C@@H](NC(=O)CNC(=O)CNC(=O)[C@H](C)NC(=O)[C@@H](NC(=O)[C@@H]1CCCN1C(=O)[C@H](CC(C)C)NC(=O)[C@H](Cc1ccccc1)NC(=O)[C@H](CCCNC(=N)N)NC(=O)[C@@H](NC(=O)[C@H](CCCCN)NC(=O)[C@H](CCCNC(=N)N)NC(=O)[C@@H](NC(=O)[C@H](CC(C)C)NC(=O)[C@H](CCC(=O)O)NC(=O)[C@H](CCCNC(=N)N)NC(=O)[C@H](CCC(=O)O)NC(=O)[C@H](CC(C)C)NC(=O)[C@H](CCSC)NC(=O)[C@H](Cc1ccc(O)cc1)NC(=O)[C@H](C)NC(=O)[C@@H](NC(=O)[C@@H](N)CCCCNC(=O)CCC(F)(F)C(F)(F)C(F)(F)C(F)(F)C(F)(F)C(F)(F)C(F)(F)C(F)(F)F)C(C)C)C(C)C)[C@@H](C)O)C(C)C)[C@@H](C)O)C(C)C)C(=O)N[C@@H](CCC(=O)O)C(=O)N[C@H](C(=O)N[C@@H](CC(C)C)C(=O)N[C@@H](Cc1c[nH]cn1)C(=O)N[C@@H](CC(C)C)C(=O)N[C@H](C(=O)N[C@@H](CCC(N)=O)C(=O)NCC(N)=O)[C@@H](C)O)C(C)C [FCP8] (H-K(Propanoyl(3-C8F17))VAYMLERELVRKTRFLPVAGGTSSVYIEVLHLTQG-NH2)
- Further dilution in Mannitol:Water Solubility [1]: insoluble; also recorded: Cloudy/Particulates
- Dispersion in Water Solubility [1]: Cloudy/Particulates
- YIELD % of each FCP following sterile filtration, MIX 2 ([2]; MIX 2 dispersed in water): 25.3%
- Percentage acetic acid (% v/v): minimum concentration for acceptable dispersibility and solubility [3]: 80 % v/v
- Visual appearance after dispersion [3]: Clear
- Physical stability of formulation at less than 80% (v/v) acetic acid [3]: physically unstable over time
- Ease of solubility, Cycle 1 Vortexing [4]: Particulates+
- Ease of solubility, Cycle 1 Sonication [4, 5]: Some
- Ease of solubility, Cycle 2 Vortexing [4, 5]: Some
- Ease of solubility, Cycle 3 Sonication [4, 5]: Clear
- Visual appearance after dispersion [4]: Clear

Structure (SMILES): CC[C@H](C)[C@H](NC(=O)[C@H](CO)NC(=O)[C@H](CC(C)C)NC(=O)[C@@H](NC(=O)[C@H](CC(N)=O)NC(=O)[C@H](CCCNC(=N)N)NC(=O)[C@H](Cc1ccccc1)NC(=O)[C@H](Cc1c[nH]c2ccccc12)NC(=O)[C@H](CCC(=O)O)NC(=O)[C@@H]1CCCN1C(=O)[C@H](CCC(N)=O)NC(=O)[C@H](CC(N)=O)NC(=O)[C@H](CCCNC(=N)N)NC(=O)[C@@H](NC(=O)[C@@H](NC(=O)[C@H](Cc1ccc(O)cc1)NC(=O)[C@@H](N)CCCCNC(=O)CCC(F)(F)C(F)(F)C(F)(F)C(F)(F)C(F)(F)C(F)(F)C(F)(F)C(F)(F)F)[C@@H](C)CC)[C@@H](C)O)C(C)C)C(=O)N[C@@H](C)C(=O)N1CCC[C@H]1C(=O)N[C@H](C(=O)N[C@@H](CCSC)C(=O)N[C@@H](Cc1ccccc1)C(=O)N[C@@H](CO)C(=O)N[C@@H](CC(N)=O)C(=O)N[C@@H](CCCCN)C(=O)N[C@@H](CCSC)C(=O)N[C@@H](C)C(=O)N[C@@H](CCCNC(=N)N)C(=O)N[C@@H](CC(C)C)C(=O)NCC(=O)N[C@@H](CCCCN)C(=O)NCC(=O)N[C@@H](Cc1ccc(O)cc1)C(=O)N[C@@H](CCSC)C(=O)N[C@@H](Cc1ccccc1)C(=O)N[C@@H](CCC(=O)O)C(N)=O)[C@@H](C)CC [FCP9]
- Further dilution in Mannitol:Water Solubility [1]: partially soluble; also recorded: Clear/Particulates
- Dispersion in Water Solubility [1]: Cloudy−/Particulates
- YIELD % of each FCP following sterile filtration, MIX 1 ([2]; MIX 1 dispersed in water): 22.9%
- Percentage acetic acid (% v/v): minimum concentration for acceptable dispersibility and solubility [3]: 80 % v/v
- Visual appearance after dispersion [3]: Clear
- Physical stability of formulation at less than 80% (v/v) acetic acid [3]: physically unstable over time
- Ease of solubility, Cycle 1 Vortexing [4]: Particulates−
- Ease of solubility, Cycle 1 Sonication [4, 5]: Clear
- Ease of solubility, Cycle 2 Sonication [4, 5]: Clear
- Ease of solubility, Cycle 2 Vortexing [4, 5]: Clear
- Ease of solubility, Cycle 3 Sonication [4, 5]: Clear
- Ease of solubility, Cycle 3 Vortexing [4, 5]: Clear
- Visual appearance after dispersion [4]: Clear

From patent US10729759B2, “Fluorocarbon-linked peptide formulation” (priority 2010, dated 2020)
